For data set [1], the system named is H5V cells. The experiment in a line: Phototoxicity assay (PDT efficacy at two incubation times), neutral red survival. It counts as cell-based, mouse. Particulars: then 10 min illumination, 12 J/cm^2. The procedure: H5V cells (40×10^3/well) were cultured in 96-well plates for 24 h to ˜80% confluence. To determine phototoxicity, the culture medium was replaced with 100 μl/well medium, in the absence or presence of 10^−8 to 10^−6 M sensitizer, and incubated in the dark for 15 min or 3 h in the culture incubator. The plates (PDT group) were then placed in the light field at room temperature and illuminated from the bottom for 10 min (800>λ>650 nm, 12 J/cm^2). After illumination, the medium was changed to fresh culture medium. The cultures were then placed in the culture incubator and cell survival was determined 24 h later, using the neutral red survival assay described below.
Following 24 h post PDT the culture medium in the wells was replaced with 100 μl fresh medium containing 40 μg/ml neutral red. The plate was incubated for 1.5 h in a dark culture incubator. The medium was aspirated and the cells washed with 100 μl of solution containing 1% CaCl2 and 0.5% formaldehyde, which removes the unincorporated dye and fixes the cells to the substratum. The dye was then extracted from the cells into the supernatant upon addition of 100 μl 1% glacial acetic acid in 50% ethanol. After 1-2 min at room temperature, the optical density of the wells was determined in a microplate spectrophotometer using a 570 nm filter. After subtraction of assay blanks, net optical density was computed as the average value of triplicate determinations. Cell survival was calculated as the percent of the dye accumulated in the untreated control. To determine cell survival data was plotted against sensitizer concentration. These curves were then used to calculated LD50 values.
Following synthesis, the compounds described in the Examples 23 to 75 above were purified, divided into equal aliquots and lyophilized for storage (desiccated at −20° C.). The exact material content was determined by HPLC-diode array detection, and the PDT efficacy was evaluated at two incubation times as described in the experimental section.

The nature of data set [2]: Octanol/water partition ratio. It counts as physicochemical. An excerpt:
Optical absorption in water, λ (relative absorption): 753 (1.00), 519 (0.30), 354 (1.25) nm. Octanol/water partition ratio is 40/60. ESI-MS (+): 413.62 ([M-2×citrate]/2). Octanol/water partition ratio is 50/50. ESI-MS (+): 455.89 ([M-2×citrate]/2). Octanol/water partition ratio is 75/25.

[3] abbreviates: 15 min incubation in the dark, read-out: IC50 15 min.
Where [4] appears, read: 3 h incubation in the dark, read-out: IC50 3 hours.

Read-outs that look alike come from different tables or passages of the source.

As to `CC(=O)O.CC[C@H]1C2=NC(=Cc3c(C(C)=O)c(C)c4[n]3[Pd][n]3c(c(C)c(C(=O)NCCCCN)c3=C(CC(=O)OC)C3=NC(=C4)[C@@H](C)[C@@H]3CCC(=O)NCC(O)CO)=C2)[C@@H]1C` (stereo partly shown) [Compound 61, Palladium 3^1-oxo-15-methoxycarbonylmethyl-Rhodobacteriochlorin-13^1-(4-aminobutyl)amide-17^3-(2,3-dihydroxypropyl) amide], the 50% inhibitory concentration (IC50) (commonly the concentration at which inhibition is half-maximal) in data set [1] (setting [3]) came to 0.69 µM; in data set [1] (setting [4]) it was 0.21 µM.
As for “Palladium 3^1-oxo-15-methoxycarbonylmethyl-Rhodobacteriochlorin-13^1-(2,3-dihydroxypropyl)amide-17^3-(3-N-(2′-pyridyl)aminopropyl)amide [Compound 73]”, the half-maximal inhibitory concentration (IC50) in data set [1] (setting [3]) turned out to be 0.38 µM; in data set [1] (setting [4]), 0.3 µM.
The matching figures for `CC[C@H]1C2=NC(=Cc3c(C(C)=O)c(C)c4[n]3[Pd][n]3c(c(C)c(C(=O)NCCNCCN)c3=C(CC(=O)OC)C3=NC(=C4)[C@@H](C)[C@@H]3CCC(=O)NCCNCCN)=C2)[C@@H]1C` [Compound 38, Palladium 3^1-oxo-15-methoxycarbonylmethyl-Rhodobacteriochlorin-13^1, 17^3-di-(2-[(2-aminoethyl)amino]ethyl)amide]: 0.44 µM and 0.16 µM.
As for `CCC1C2=Cc3c(C)c(C(=O)NCCNCCN(CC)CC)c4[n]3[Pd][n]3c(c(C)c(C(C)=O)c3=CC(=N2)C1C)=CC1=NC(=C4CC(=O)OC)C(CCC(=O)NCCNCCN(CC)CC)C1C` (stereo not shown) [Compound 39, Palladium 3^1-oxo-15-methoxycarbonylmethyl-Rhodobacteriochlorin-13^1,17^3-di-(2-[(2-N^2-diethylaminoethyl)amino]ethyl) amide], the IC50 turned out to be 2.44 µM in data set [1] (setting [3]) and 1.1 µM in data set [1] (setting [4]).
For `CC[C@H]1C2=NC(=Cc3c(C(C)=O)c(C)c4[n]3[Pd][n]3c(c(C)c(C(=O)NCC(O)CO)c3=C(CC(=O)OC)C3=NC(=C4)[C@@H](C)[C@@H]3CCC(=O)NCCN3CCOCC3)=C2)[C@@H]1C` (stereo partly shown) [Compound 53, Palladium 3^1-oxo-15-methoxycarbonylmethyl-Rhodobacteriochlorin-13^1-(2,3-dihydroxypropyl)amide-17^3-(2-morpholino-N-ethyl)amide], in that order: 2 µM and 0.9 µM.
The matching figures for `CCC1C2=Cc3c(C)c(C(=O)NCCNc4ccccn4)c4[n]3[Pd][n]3c(c(C)c(C(C)=O)c3=CC(=N2)C1C)=CC1=NC(=C4CC(=O)OC)C(CCC(=O)NCCNc2ccccn2)C1C` (stereo not shown) [Compound 44, Palladium 3^1-oxo-15-methoxycarbonylmethyl-Rhodobacteriochlorin-13^1,17^3-di(2-N-(2′-pyridyl)aminoethyl)amide]: 1.41 µM and 0.17 µM.
On to `CCC1C2=Cc3c(C)c(C(=O)NCCNc4ccccn4)c4[n]3[Pd][n]3c(c(C)c(C(C)=O)c3=CC(=N2)C1C)=CC1=NC(=C4CC(=O)OC)C(CCC(=O)NCC(O)CO)C1C` (stereo not shown) [Compound 57, Palladium 3^1-oxo-15-methoxycarbonylmethyl-Rhodobacteriochlorin-13^1-(2-N-(2′-pyridyl)aminoethyl)amide-17^3-(2,3-dihydroxypropyl)amide], for which the results for the IC50 in data set [1] (setting [3]) and in data set [1] (setting [4]) were 1.33 µM and 0.6 µM, respectively.
With `CC[C@H]1C2=NC(=Cc3c(C(C)=O)c(C)c4[n]3[Pd][n]3c(c(C)c(C(=O)NCCCN)c3=C(CC(=O)OC)C3=NC(=C4)[C@@H](C)[C@@H]3CCC(=O)NCCCN)=C2)[C@@H]1C` [Compound 34, Palladium 3^1-oxo-15-methoxycarbonylmethyl-Rhodobacteriochlorin-13^1, 17^3-di(3-aminopropyl)amide], the half-maximal inhibitory concentration (IC50) in data set [1] (setting [3]) is 0.48 µM; in data set [1] (setting [4]), 0.2 µM.
For `CC(=O)O.CC[C@H]1C2=NC(=Cc3c(C(C)=O)c(C)c4[n]3[Pd][n]3c(c(C)c(C(=O)NCCN(C)C)c3=C(CC(=O)OC)C3=NC(=C4)[C@@H](C)[C@@H]3CCC(=O)NCC(C)O)=C2)[C@@H]1C` (stereo partly shown) [Compound 67, Palladium 3^1-oxo-15-methoxycarbonylmethyl-Rhodobacteriochlorin-13^1-(2-N^2-dimethylaminoethyl)amide-17^3-(2-hydroxypropyl)amide], the half-inhibitory concentration (IC50) in data set [1] (setting [3]) came out at 0.5 µM; in data set [1] (setting [4]), 0.18 µM.
For `CC[C@H]1C2=NC(=Cc3c(C(C)=O)c(C)c4[n]3[Pd][n]3c(c(C)c(C(=O)NCCNCCN)c3=C(CC(=O)OC)C3=NC(=C4)[C@@H](C)[C@@H]3CCC(=O)NCC(O)CO)=C2)[C@@H]1C` (stereo partly shown) [Compound 55, Palladium 3^1-oxo-15-methoxycarbonylmethyl-Rhodobacteriochlorin-13^1-(2-[(2-aminoethyl)amino]ethyl)amide-17^3-(2,3-dihydroxypropyl)amide], in that order: 1.07 µM and 0.43 µM.
With `CCC1c2cc3[n-]c(c(CC(=O)OC)c4nc(cc5[n-]c(cc(n2)C1C)c(C(C)=O)c5C)C(C)C4CCC(=O)NCCCNCCCN)c(C(=O)NCCCNCCCN)c3C.[Pd+2]` (stereo not shown) [Compound 42, Palladium 3^1-oxo-15-methoxycarbonylmethyl-Rhodobacteriochlorin-13^1, 17^3-di-(3-[(3-aminopropyl)amino]propyl)amide], the IC50 in data set [1] (setting [3]) came out at 0.68 µM; in data set [1] (setting [4]), 0.28 µM.
For `CC[C@H]1C2=NC(=Cc3c(C(C)=O)c(C)c4[n]3[Pd][n]3c(c(C)c(C(=O)NCC(O)CO)c3=C(CC(=O)OC)C3=NC(=C4)[C@@H](C)[C@@H]3CCC(=O)NCCN)=C2)[C@@H]1C` (stereo partly shown) [Compound 47, Palladium 3^1-oxo-15-methoxycarbonylmethyl-Rhodobacteriochlorin-13^1-(2,3-dihydroxypropyl)amide-17^3-(2-aminoethyl) amide], in that order: 0.45 µM and 0.25 µM.
The matching figures for `CC[C@H]1C2=NC(=Cc3c(C(C)=O)c(C)c4[n]3[Pd][n]3c(c(C)c(C(=O)NCCN(CC)CC)c3=C(CC(=O)OC)C3=NC(=C4)[C@@H](C)[C@@H]3CCC(=O)NCCN(CC)CC)=C2)[C@@H]1C` [Compound 45, Palladium 3^1-oxo-15-methoxycarbonylmethyl-Rhodobacteriochlorin-13^1, 17^3-di(2-N^2-diethylaminoethyl)amide]: 0.2 µM and 0.18 µM.
As for “3^1-Oxo-15-methoxycarbonylmethyl-Rhodobacteriochlorin 13^1,17^3-di(3-N^3-trimethylammoniumpropyl)amide dicitrate salt [Compound 7]”, the Octanol/water partition ratio in data set [2] was 50/50.
Turning to `CC[C@H]1C2=NC(=Cc3c(C(C)=O)c(C)c4[n]3[Pd][n]3c(c(C)c(C(=O)NCCCN(C)C)c3=C(CC(=O)OC)C3=NC(=C4)[C@@H](C)[C@@H]3CCC(=O)O)=C2)[C@@H]1C` [Compound 26, Palladium 3^1-oxo-15-methoxycarbonylmethyl-Rhodobacteriochlorin-13^1-(3-N^2-dimethylaminopropyl)amide], the half-maximal inhibitory concentration (IC50) in data set [1] (setting [3]) turned out to be 1 µM; in data set [1] (setting [4]), 0.45 µM.
For “Palladium 3^1-oxo-15-methoxycarbonylmethyl-Rhodobacteriochlorin-13^1-(2-N^2-dimethylaminoethyl)amide-17^3-(2-(2-hydroxyethylamino)ethyl)amide [Compound 70]”, in that order: 0.55 µM and 0.16 µM.

For the origin of these results see US8207154B2, “Catatonic bacteriochlorophyll derivatives” (Yeda Research and Development Co., Ltd., priority 2005, dated 2012).
